In data set [1] the target is T1, serotoninergic 5-HT1A receptor (Homo sapiens, UniProt P08908).
T1 sequence (P08908 1-422): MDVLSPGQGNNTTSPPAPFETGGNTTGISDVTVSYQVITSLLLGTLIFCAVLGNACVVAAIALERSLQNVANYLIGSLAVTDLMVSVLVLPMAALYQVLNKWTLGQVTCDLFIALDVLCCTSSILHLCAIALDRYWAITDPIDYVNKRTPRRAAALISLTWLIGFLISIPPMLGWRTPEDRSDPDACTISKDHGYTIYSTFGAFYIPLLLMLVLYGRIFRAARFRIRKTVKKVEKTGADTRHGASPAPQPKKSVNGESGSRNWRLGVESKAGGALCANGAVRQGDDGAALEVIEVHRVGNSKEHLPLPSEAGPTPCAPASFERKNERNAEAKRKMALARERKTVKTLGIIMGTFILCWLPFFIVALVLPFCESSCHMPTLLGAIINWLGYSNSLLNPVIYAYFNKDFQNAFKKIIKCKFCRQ
Description: Cellular functional assay, serotoninergic 5-HT1A receptor (agonism/antagonism). It is filed as cell-based. As to the method:
The compounds were tested at the concentration of 1×10^−6M.
In the Tables ag refers to agonism, and antag to antagonism).

A further data set concerns the target hERG potassium channels (Homo sapiens, UniProt Q12809). Description: hERG potassium channel block, electrophysiology (IonWorks Quattro), CHO cells. Background: The hERG channel carries a current that helps repolarise heart muscle cells.
The target in a further data set is dopaminergic D3 receptor (Homo sapiens, UniProt P35462). Description: Binding assay D3 (h), [3H]methyl-spiperone, CHO cells. Also on record: expressed in transfected cells; host or cells: CHO cells. To be noted: read-out: D3 [%]. Put shortly: (§1)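 Total binding and binding under an excess of unlabelled competitor were both measured, the difference giving specific binding. Counts came from scintillation detection, and compound concentration was 1×10^−6 M.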
Sequence of dopaminergic D3 receptor (P35462 whole entry): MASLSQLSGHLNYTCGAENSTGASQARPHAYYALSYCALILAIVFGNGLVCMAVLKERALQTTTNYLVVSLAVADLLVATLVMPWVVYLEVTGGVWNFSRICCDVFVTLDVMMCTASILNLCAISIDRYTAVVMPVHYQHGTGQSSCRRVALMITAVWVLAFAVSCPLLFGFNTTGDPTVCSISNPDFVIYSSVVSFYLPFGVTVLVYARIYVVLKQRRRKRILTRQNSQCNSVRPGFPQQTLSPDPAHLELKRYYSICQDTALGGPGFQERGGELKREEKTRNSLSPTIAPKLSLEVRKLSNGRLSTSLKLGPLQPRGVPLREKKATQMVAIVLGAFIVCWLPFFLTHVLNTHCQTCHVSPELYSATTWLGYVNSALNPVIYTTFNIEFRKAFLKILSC

Data set [2] addresses serotoninergic 5-HT6 receptor (Homo sapiens, UniProt P50406). Description: Binding assay 5-HT6 (h), [3H]LSD, CHO cells. The note with it: read-out: 5-HT6. More on the design: expressed in transfected cells; host or cells: CHO cells. Put shortly: as §1
The subject of a further data set is sigma σ receptor. Description: Binding assay σ (non-selective), [3H]DTG, rat cerebral cortex. The note with it: percent inhibition of control specific binding; compounds tested at 1×10^−6 M. A digest of the protocol: as §1
Data set [3] has as its target histaminergic H1 receptor (Homo sapiens, UniProt P35367). Description: Binding assay H1 (h), [3H]pyrilamine, HEK-293 cells. More on the design: expressed in transfected cells; host or cells: HEK-293 cells. To be noted: read-out: H1 [%]. A digest of the protocol: as §1
Data set [4] deals with T2, serotoninergic receptor 5-HT2C (Homo sapiens, UniProt P28335).
T2 construct: expressed in transfected cells; host or cells: HEK-293 cells
T2 sequence (P28335 33-458): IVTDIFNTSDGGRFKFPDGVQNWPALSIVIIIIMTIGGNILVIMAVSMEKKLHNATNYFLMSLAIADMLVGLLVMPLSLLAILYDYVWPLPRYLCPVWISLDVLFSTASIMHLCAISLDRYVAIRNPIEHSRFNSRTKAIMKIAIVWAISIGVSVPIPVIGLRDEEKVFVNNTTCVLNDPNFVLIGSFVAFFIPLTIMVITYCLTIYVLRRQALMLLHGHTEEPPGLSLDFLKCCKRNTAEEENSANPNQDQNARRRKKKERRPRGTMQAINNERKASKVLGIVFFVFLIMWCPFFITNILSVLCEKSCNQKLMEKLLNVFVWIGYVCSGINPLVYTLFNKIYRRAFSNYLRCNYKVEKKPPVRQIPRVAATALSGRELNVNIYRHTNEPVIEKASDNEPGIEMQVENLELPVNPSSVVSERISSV
Description: Binding assay 5-HT2C (h), [3H]mesulergine, HEK-293 cells. The note with it: read-out: 5-HT2C [%]. A digest of the protocol: as §1

In a further data set the test system is adrenergic α1 receptor. Description: Binding assay α1 (non-selective), [3H]prazosin, rat cerebral cortex. To be noted: percent inhibition of control specific binding; compounds tested at 1×10^−6 M. A digest of the protocol: as §1
Data set [5] addresses serotoninergic 5-HT7 receptor (Homo sapiens, UniProt P34969). Description: Binding assay 5-HT7 (h), [3H]LSD, CHO cells. To be noted: read-out: 5-HT7. More on the design: expressed in transfected cells; host or cells: CHO cells. Put shortly:
as §1

The subject of a further data set is mice. Description: d-Amphetamine-induced locomotor hyperactivity in mice. The note with it: for MED*: minimum effective dose, d-amphetamine-induced locomotor hyperactivity, i.p.
For data set [6], the target named is T1, serotoninergic 5-HT1A receptor. Description: Binding assay 5-HT1A (h), [3H]8-OH-DPAT, HEK-293 cells. The note with it: read-out: 5-HT1A. More on the design: expressed in transfected cells; host or cells: HEK-293 cells. Put shortly:
as §1

The mark [7] stands for this setting: CHO; read-out: 5-HT1A-antag. [%].
[8] abbreviates: agonist effect, percent of control specific agonist response (100 nM 8-OH-DPAT for control); 1×10^−6 M; 5-HT1A (h), CHO cells; read-out: 5-HT1A-ag [%].
Setting [9] is: % block of hERG current, cloned hERG channels in CHO cells, IonWorks Quattro.

Where two headings read alike, the source gives them in different places.

Sequence of hERG potassium channels (Q12809 whole entry): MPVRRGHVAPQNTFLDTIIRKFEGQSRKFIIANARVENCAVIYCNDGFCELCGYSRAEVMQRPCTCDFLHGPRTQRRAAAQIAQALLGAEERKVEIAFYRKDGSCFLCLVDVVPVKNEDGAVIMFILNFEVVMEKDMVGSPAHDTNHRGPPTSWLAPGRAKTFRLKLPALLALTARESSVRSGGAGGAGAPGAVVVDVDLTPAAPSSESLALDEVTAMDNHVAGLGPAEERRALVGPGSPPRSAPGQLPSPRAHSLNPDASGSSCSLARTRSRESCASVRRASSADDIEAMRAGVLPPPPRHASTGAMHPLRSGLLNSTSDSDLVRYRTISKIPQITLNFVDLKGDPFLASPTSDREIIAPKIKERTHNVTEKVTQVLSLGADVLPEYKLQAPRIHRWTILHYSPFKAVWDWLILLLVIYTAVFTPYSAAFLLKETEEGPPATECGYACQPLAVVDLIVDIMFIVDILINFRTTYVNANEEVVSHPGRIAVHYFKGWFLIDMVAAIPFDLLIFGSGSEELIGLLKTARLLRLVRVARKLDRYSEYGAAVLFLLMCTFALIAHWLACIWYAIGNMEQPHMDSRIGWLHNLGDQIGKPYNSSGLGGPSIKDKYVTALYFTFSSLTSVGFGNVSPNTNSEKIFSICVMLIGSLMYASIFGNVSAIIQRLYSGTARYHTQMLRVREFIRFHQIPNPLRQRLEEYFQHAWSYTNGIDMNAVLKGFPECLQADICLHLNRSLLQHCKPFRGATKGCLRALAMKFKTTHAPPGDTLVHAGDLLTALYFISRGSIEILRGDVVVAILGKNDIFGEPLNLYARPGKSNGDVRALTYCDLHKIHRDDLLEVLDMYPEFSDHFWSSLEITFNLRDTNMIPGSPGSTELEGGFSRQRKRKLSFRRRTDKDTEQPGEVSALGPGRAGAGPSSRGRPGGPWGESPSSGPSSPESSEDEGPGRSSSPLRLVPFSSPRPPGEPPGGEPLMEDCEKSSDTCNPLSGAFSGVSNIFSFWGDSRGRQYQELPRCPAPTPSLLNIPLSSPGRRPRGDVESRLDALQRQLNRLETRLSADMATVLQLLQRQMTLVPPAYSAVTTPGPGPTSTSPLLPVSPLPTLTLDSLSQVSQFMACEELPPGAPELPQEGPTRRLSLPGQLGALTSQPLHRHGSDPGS
Sequence of histaminergic H1 receptor (P35367 whole entry): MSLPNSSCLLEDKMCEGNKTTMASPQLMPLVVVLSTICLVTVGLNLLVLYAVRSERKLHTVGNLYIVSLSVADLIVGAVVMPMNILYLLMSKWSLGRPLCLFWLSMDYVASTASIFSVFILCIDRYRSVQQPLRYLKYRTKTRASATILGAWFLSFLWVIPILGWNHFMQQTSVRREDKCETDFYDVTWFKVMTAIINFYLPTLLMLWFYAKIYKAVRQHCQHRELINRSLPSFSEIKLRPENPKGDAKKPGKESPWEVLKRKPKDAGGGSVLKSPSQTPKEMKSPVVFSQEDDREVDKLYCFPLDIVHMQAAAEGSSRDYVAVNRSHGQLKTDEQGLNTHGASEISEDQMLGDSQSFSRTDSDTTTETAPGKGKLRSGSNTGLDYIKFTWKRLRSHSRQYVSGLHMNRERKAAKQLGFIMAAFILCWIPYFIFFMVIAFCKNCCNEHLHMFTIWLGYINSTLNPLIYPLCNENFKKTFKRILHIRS
Sequence of serotoninergic 5-HT7 receptor (P34969 whole entry): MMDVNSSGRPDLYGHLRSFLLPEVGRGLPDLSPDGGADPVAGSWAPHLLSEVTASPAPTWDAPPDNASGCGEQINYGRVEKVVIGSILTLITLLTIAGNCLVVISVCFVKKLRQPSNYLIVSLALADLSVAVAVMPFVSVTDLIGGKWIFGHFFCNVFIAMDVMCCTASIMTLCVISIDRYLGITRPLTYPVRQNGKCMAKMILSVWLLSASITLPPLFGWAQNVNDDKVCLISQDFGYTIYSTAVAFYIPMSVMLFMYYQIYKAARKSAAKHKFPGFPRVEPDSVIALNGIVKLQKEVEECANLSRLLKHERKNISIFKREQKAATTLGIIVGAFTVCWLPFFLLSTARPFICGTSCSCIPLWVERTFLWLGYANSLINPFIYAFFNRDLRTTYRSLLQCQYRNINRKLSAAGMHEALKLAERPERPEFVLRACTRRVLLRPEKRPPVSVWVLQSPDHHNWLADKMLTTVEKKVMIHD
Sequence of serotoninergic 5-HT6 receptor (P50406 whole entry): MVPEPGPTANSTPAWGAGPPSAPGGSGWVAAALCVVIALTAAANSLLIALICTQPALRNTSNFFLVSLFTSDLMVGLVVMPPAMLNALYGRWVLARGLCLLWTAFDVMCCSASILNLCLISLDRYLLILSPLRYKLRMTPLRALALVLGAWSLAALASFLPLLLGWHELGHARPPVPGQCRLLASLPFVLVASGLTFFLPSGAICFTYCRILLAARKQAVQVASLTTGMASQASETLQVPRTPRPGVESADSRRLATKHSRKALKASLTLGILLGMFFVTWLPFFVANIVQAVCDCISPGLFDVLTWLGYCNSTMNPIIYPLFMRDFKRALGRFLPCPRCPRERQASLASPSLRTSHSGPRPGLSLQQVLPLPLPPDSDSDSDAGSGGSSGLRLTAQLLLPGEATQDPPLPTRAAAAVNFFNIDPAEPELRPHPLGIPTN
Description for mice: All the experiments were performed by two observers unaware of the treatment applied between 9:00 and 14:00 on separate groups of animals. All animals were used only once and were killed immediately after the experiment.
The locomotor activity was recorded with an Opto M3 multi-channel activity monitor (MultiDevice Software v. 1.3, Columbus Instruments). The mice were individually placed in plastic cages (22×12×13 cm) for 30 minutes habituation period, and then the crossings of each channel (ambulation) were counted during 1 h with data recording every 5 minutes. The cages were cleaned up with 70% ethanol after each mouse. Drugs were administered to 10 mice per treatment group. d-Amphetamine was administered 30 minutes before the test.
An injection volume of 10 ml/kg (mice) or 2 ml/kg (rats) was used throughout and all compounds were administered intraperitoneally (i.p.), except d-amphetamine that was given subcutaneously (s.c.).
All the data are expressed as the mean±SEM. The statistical significance of effects was evaluated using separate one-way analysis of variance (ANOVA) with comparison between individual groups by Dunnett's test (when only one drug was given) or by the Tukey's test when two drugs were used; p<0.05, p<0.01 and p<0.001 were considered statistically significant. ED50 values were calculated using Graph Pad Prism 5 Software.

`O=S(=O)(NCCCCN1CCN(c2nsc3ccccc23)CC1)c1ccc2ccccc2c1` [Compound 2, N-(4-(4-(1,2-Benzothiazol-3-yl)piperazin-1-yl)butyl)naphthalene-2-sulphonamide]: the activation at 1 µM in data set [1] (CHO, read-out: 5-HT1A-ag [%]) turned out to be 47%. The inhibition at 1 µM in [1] (CHO, read-out: 5-HT1A-antag. [%]) is 18%; on dopaminergic D3 receptor it was 100%; in data set [2] it was 97%; in data set [3], 94%; in [4], 89%; in [5] it was 97%. In addition, in [6], the inhibition at 1 µM was 99%. The “hERG [%]” value on hERG potassium channels is on record as 14%. Further, the “σ [%]” value in the data set on sigma σ receptor amounted to 65%. Also, the “α1 [%]” value in the data set on adrenergic α1 receptor was 97%. For the same compound, the “MED*” value in the data set with mice is recorded as 5 mg/kg.
Take `Cc1cccc(S(=O)(=O)NCCCN2CCN(c3nsc4ccccc34)CC2)c1` [Compound 7, N-(3-(4-(1,2-Benzothiazol-3-yl)piperazin-1-yl)propyl)-3-methylbenzenesulphonamide]: the inhibition at 1 µM in [1] (setting [7]) was 51%; on dopaminergic D3 receptor, 97%; in data set [2] it was 98%; in data set [3], 93%; in data set [4], 89%; in data set [5], 97%. Also, the inhibition at 1 µM in [6] came to 99%. Besides, the activation at 1 µM in data set [1] (setting [8]) turned out to be 59%. Further, the “hERG [%]” value at hERG potassium channels (setting [9]) is on record as 14%. In addition, the “σ [%]” value in the data set on sigma σ receptor is given as 61%. The “α1 [%]” value in the data set with adrenergic α1 receptor is 98%. For the same compound, the “MED*” value in the data set on mice is reported as 2 mg/kg.
On to `Cc1cccc(S(=O)(=O)NCCCN2CCC(c3noc4cc(F)ccc34)CC2)c1` [Compound 22, N-[3-[4-(6-Fluoro-1,2-benzoxazol-3-yl)piperidin-1-yl]propyl]-3-methylbenzenesulphonamide], for which the inhibition at 1 µM worked out at 99% in data set [1] (setting [7]); 96% on dopaminergic D3 receptor; 99% in data set [2]; 88% in data set [3]; 73% in [4]; 99% in data set [5]. Moreover, the inhibition at 1 µM in [6] came to 75%. In addition, the activation at 1 µM in data set [1] (setting [8]) was 0%. For the same compound, on hERG potassium channels (setting [9]), the “hERG [%]” value worked out at 52%. In the data set on sigma σ receptor, the “σ [%]” value is given as 92%. The “α1 [%]” value in the data set on adrenergic α1 receptor is 100%. Also, the “activity in d-amphetamine induced hyperlocomotion” value in the data set on mice is given as “active”. For the same compound, the “MED*” value in the data set on mice came out at 2.5 mg/kg.

Values taken from patent publication US8822517B2, “Arylosulfonamides for the treatment of CNS diseases” (Adamed SP. Z O.O., priority 2010, dated 2014).
